Assay results from publication PMC7571160, “Dibromopinocembrin and Dibromopinostrobin Are Potential Anti-Dengue Leads with Mild Animal Toxicity” (Molecules, 2020).
Read-outs that look alike come from different tables or passages of the source.

Key:
[1] = system: dengue virus serotype 2 (DENV2), New Guinea C strain; test: DENV2 NGC effective concentration (EC50) test in LLC/MK2 cells, plaque titration; format: cell-based; settings: for SI NGC (CC50/EC50): LLC/MK2 CC50 / DENV2 NGC EC50; for EC50: Dengue virus, DENV2 NGC in LLC/MK2 cells, MOI 0.1, 72 h, plaque titration
Protocol: (§1) LLC/MK2 were seeded at 5 × 10^4 cells per well of 24-well plate in growth medium and incubated overnight at 37 °C under 5% CO2. Cells were infected with DENV2 NGC at the multiplicity of infection (MOI) of 0.1 for 1 h with gentle rocking every 15 min. Cells were washed with PBS and incubated with MEM supplemented with 1% fetal bovine serum, 100 I.U./mL penicillin, and 100 μg/mL streptomycin. The compound was added to the virus-infected cells during and after infection. The cells were incubated for 72 h, unless otherwise indicated, at 37 °C under 5% CO2. Supernatants were collected and the viral infectivity was analyzed by 96-well plaque titration. Data were plotted and the EC50 values were calculated by nonlinear regression analysis. Each concentration was tested in duplicate and the results were reported as the means and standard deviation of three independent experiments. The selectivity index was calculated from the ratio of CC50 and EC50. Moreover, additional EC50s of TH002 and TH011 were also taken from Huh-7 (8 × 10^4 cells) and DENV2 16,681 (MOI of 1). Supernatants were collected after 72 h incubation for plaque titration EC50 values were calculated by nonlinear regression analysis. Data were presented by means and standard errors of three independent experiments.

[2] = system: dengue virus serotype 2 (DENV2), New Guinea C strain; parameters: method as in Srivarangkul et al. 2018 [11]; settings: ref Srivarangkul et al. 2018 [11]; read-out: DENV2 NGC EC50; cited from earlier work
LLC/MK2 cells = system: LLC/MK2 cells; parameters: method as in Srivarangkul et al. 2018 [11]; settings: ref Srivarangkul et al. 2018 [11]; cited from earlier work
Zika viruses = system: Zika viruses; parameters: method as in PMID 30959074; settings: read-out: Zika virus EC50; cited from earlier work
DENV NS3 protease = settings: cited from earlier work
DENV NS5 polymerase = system: DENV NS5 polymerase; parameters: method as in PMID 22050318; settings: cited from earlier work
[3] = parameters: method as in PMID 25744566; settings: rat, intravenous, 10 mg, single dose; cited from earlier work
[4] = parameters: method as in PMID 25744566; settings: human, 20 mg, iv drip; cited from earlier work
DENV2 = system: DENV2; parameters: method as in PMID 29360474; settings: cited from earlier work
DENV 4 = system: DENV 4; parameters: method as in PMID 29360474; settings: read-out: DENV4 EC50; cited from earlier work
DENV2 16681 = DENV2 16681 EC50 test in Huh-7 cells, plaque titration; format: cell-based, dengue virus serotype 2; settings: for EC50: Dengue virus, DENV2 16681 in Huh-7 cells, MOI 1, 72 h, plaque titration; for SI (16681) (CC50/EC50): Huh-7 CC50 / DENV2 16681 EC50
Protocol: as §1

[5] = Cytotoxic concentration (CC50) test, MTS, LLC/MK2; format: cell-based, Macaca mulatta (rhesus monkey); settings: rhesus monkey, LLC/MK2 cells
Protocol: (§2) LLC/MK2, THP-1, HEK-293, HepG2, or Huh-7 cells were seeded at 10^4 cells per well of 96-well plate and incubated overnight. Compounds were prepared to 6-10 different concentrations in filter-sterilized dimethylsulfoxide (Merck®, Darmstadt, Germany) before addition to the cells. The plates were incubated for 48 h before the MTS reagent (Promega®, Madison, WI, USA) was added to cells according to the manufacturer's protocol and incubated for 4 h before analysis by spectrophotometry at […]. Huh-7 cytotoxicity was assessed by the Alamar Blue assay (Invitrogen®, Waltham, MA, USA) and read by fluorometry at the excitation and emission wavelengths at 570 and 600 nm, respectively. Each compound was tested in triplicate. Cytotoxic concentrations (CC50) were calculated while using non-linear regression analysis and the results were reported as means and standard deviation of three independent experiments.

[6] = Cytotoxic concentration (CC50) test, MTS, THP-1; format: cell-based; settings: human, THP-1 cells, THP-1, 48 h
Protocol: as §2

[7] = Cytotoxic concentration (CC50) test, MTS, HEK-293; format: cell-based; settings: human, HEK-293 cells, HEK-293, 48 h
Protocol: as §2

[8] = Cytotoxic concentration (CC50) test, MTS, HepG2; format: cell-based; settings: human, HepG2 cells, HepG2, 48 h
Protocol: as §2

[9] = Cytotoxic concentration (CC50) test, Alamar Blue, Huh-7; format: cell-based; settings: human, Huh-7 cells; Huh-7, Alamar Blue
Protocol: as §2

C57BL/6 mice = test: Animal toxicity study, intravenous administration; format: in vivo, mouse; settings: 10 mg/kg intravenous
Protocol: The animal care and use protocol identification number 016-2562 was approved by the Institutional Animal Care and Use Committee (CU-ACUP) of the Faculty of Medicine, Chulalongkorn University, Bangkok, Thailand, based on the National Institutes of Health, USA’s criteria for the use and treatment of laboratory animals. Male 8-week-old C57BL/6 mice purchased from the National Laboratory Animal Center, Nakhornpathom, Thailand were used in the experiments. TH011 and TH002 were diluted with 10% DMSO in normal saline solution. The preparations were intravenously administered at the concentration of 10 mg/kg through a tail vein (n = 5/group). The 10% DMSO in normal saline solution was used as vehicle control. Blood were collected through tail vein nicking at day one, three, and eight after administration and the serum samples were kept at −80 °C until analysis. Renal function (serum creatinine; Scr) and liver function (serum alanine transaminase; ALT) were measured by colorimetric assays while using QuantiChromTM (DICT-500, BioAssay, Hayward, CA, USA) and EnzyChrom (EALT-100, BioAssay), respectively.

[10] = system: DENV envelope-induced fusion; test: Fusion inhibition study in C6/36 cells; format: cell-based, dengue virus serotype 2; settings: 10 µM, DENV2 NGC-infected C6/36 cells, 0.5 M MES pH 5.5
Protocol: C6/36 were seeded at 1 × 10^5 cells per well of 24-well plate MEM that was supplemented with 10% FBS and incubated overnight at 28 °C. Cells were infected with the virus at the multiplicity of infection (MOI) of 1 for 1 h at 28 °C. Compounds TH002 and TH011 were diluted in DMSO and added to the infected cells to the final concentration of 10 µM in 1% DMSO after DENV2 NGC (M.O.I. of 1) infection. Cells were incubated with MEM supplemented with 1% fetal bovine serum for 48 h before the addition of 0.5 M MES. Cells were incubated for an additional 24–48 h at 28 °C until the fused cells were visualized under light microscope.
Figure S5. Fusion inhibition assay; TH002 and TH011 (10 µM) were incubated with the DENV2-infected cells for
2 days before addition of 0.5 M MES, pH 5.5. The 4G2 antibody was an inhibitor of DENV envelope fusion and
was used as a control. Pos and Neg were abbreviated from positive (DENV) and negative (media-only) controls,
(1 picture or pasted object on this page, not shown here)

[11] = Solubility observations in culture media and vehicles; format: physicochemical; settings: for Dissolution in culture media, DMSO and NSS: data not shown; for Concentration above which compound was only partially dissolved: cell culture test conditions

## O=C1CC(c2ccccc2)Oc2cc(O)cc(O)c21 (stereo not drawn) [TH022, 5,7-dihydroxyflavanone]
[1]
  SI NGC (CC50/EC50): >6.47
[2]
  EC50: 15.5 µM
LLC/MK2 cells
  CC50: > 100 µM
Zika viruses
  EC50: 17.4 µM
DENV NS3 protease
  DENV NS3 protease IC50: 286.90 µg/mL
DENV NS5 polymerase
  Inhibition of DENV NS5 polymerase activity: not inhibit
[3]
  half-life: 12 to 14 min
[4]
  half-life: 47 min

## COc1cc2c(c(O)c1C)C(=O)CC(c1ccccc1)O2 (stereo not drawn) [6-methylpinostrobin]
DENV2
  EC50: 16 ± 5.38 µM
DENV 4
  EC50: 11.7 ± 6.04 µM

## COc1c(Br)c(O)c2c(c1Br)OC(c1ccccc1)CC2=O (stereo not drawn) [TH002, 6,8-dibromo-5-hydroxy-7-methoxyflavanone]
[1]
  EC50: 5.86 ± 0.507 µM
  SI NGC (CC50/EC50): >17.0745,
DENV2 16681
  EC50: 3.19 µM
  SI (16681) (CC50/EC50): (23.9342)
[5]
  CC50 at 48 h: > 100 µM
[6]
  CC50 at 48 h: 51.8 ± 2.3 µM
[7]
  CC50 at 48 h: > 100 µM
[8]
  CC50 at 48 h: 49.9 ± 2.7 µM
[9]
  CC50 at 48 h: 76.4 ± 7.2 µM
C57BL/6 mice; day 1 and 3
  ALT levels (hepatotoxicity): mildly elevated
C57BL/6 mice; day 8
  ALT levels (hepatotoxicity): decreased to normal
[10]
  Inhibition of DENV envelope-induced fusion under acidic pH: no fusion inhibition observed
[11]
  Dissolution in culture media, DMSO and NSS: completely dissolved

## O=C1CC(c2ccccc2)Oc2c(Br)c(O)c(Br)c(O)c21 (stereo not drawn) [TH011, 6,8-dibromo-5,7-dihydroxyflavanone]
[1]
  EC50: 2.06 ± 0.754 µM
  SI NGC (CC50/EC50): 32.5621
DENV2 16681
  EC50: 4.59 µM
  SI (16681) (CC50/EC50): (10.5201)
[5]
  CC50 at 48 h: 67.2 ± 0.973 µM
[6]
  CC50 at 48 h: > 100 µM
[7]
  CC50 at 48 h: 93.2 ± 5.99 µM
[8]
  CC50 at 48 h: > 100 µM
[9]
  CC50 at 48 h: 48.3 ± 4.11 µM
C57BL/6 mice; day 1 and 3
  ALT levels (hepatotoxicity): not obviously seen
[10]
  Inhibition of DENV envelope-induced fusion under acidic pH: no fusion inhibition observed
[11]
  Dissolution in culture media, DMSO and NSS: completely dissolved

## COc1cc2c(c(O)c1I)C(=O)CC(c1ccccc1)O2 (stereo not drawn) [TH018, 6-iodo-5-hydroxy-7-methoxyflavanone]
[1]
  EC50: 4.1 ± 1.84 µM
  SI NGC (CC50/EC50): >6.0945
[5]
  CC50 at 48 h: > 25 µM
[11]
  Concentration above which compound was only partially dissolved: > 25 µM

## COc1cc(O)c2c(c1)O[C@H](c1ccccc1)CC2=O [TH019, pinostrobin]
[1]
  EC50: 10.8 ± 1.63 µM
  SI NGC (CC50/EC50): 7.3242
[5]
  CC50 at 48 h: 78.8 ± 2.92 µM
DENV NS3 protease
  DENV NS3 protease IC50: 90.48 µg/mL
  Ki: 345 ± 70 µM

## COc1c(I)c(O)c2c(c1I)OC(c1ccccc1)CC2=O (stereo not drawn) [TH012, 6,8-diiodo-5-hydroxy-7-methoxyflavanone]
[1]
  EC50: 2.8 ± 1.55 µM
  SI NGC (CC50/EC50): >3.5714
[5]
  CC50 at 48 h: > 10 µM
[11]
  Concentration above which compound was only partially dissolved: exceeded 10 µM
